“Also recorded” adds a separate entry of the source.
Columns and labels:
[1] = system: VICs; experiment: Calcification assay of VICs in osteogenic medium (Alizarin Red S, alkaline phosphatase); type: cell-based, human; details: VICs in osteoblastic medium; for calcification / production of calcific nodules: Poly(I:C) 20 μg/mL or inhibitor 26 μM, Alizarin Red S
Description: For functional evaluation of osteoblastic activity, VICs were subjected to a calcification assay. Cells were cultured in osteogenic medium including 10 mmol/L beta-glycerophosphate, 10 nmol/L vitamin D3, and 10 nmol/L dexamethasone as described previously^4. The medium was changed every three days. Subsequently, supernatant was analyzed for alkaline phosphatase activity using the commercially available alkaline phosphatase assay kit (Abcam, Cambridge, UK). After careful rinsing with PBS, cells were fixed with 4% paraformaldehyde, washed with distilled water and Alizarin Red S staining solution (Alfa Aesar, Haverhill, MA) was added upon the fixed cells for 20 minutes at room temperature (RT). Imaging of the staining was performed using a Zeiss Axioplan 2 microscope (Zeiss, Oberkochen, Germany). Images were processed using Adobe Photoshop CS5.1 for Mac (Adobe Systems Inc., San Jose, CA, USA) and analyzed with ImageJ software (National Institutes of Health, Bethesda, […]).

[2] = system: zebrafish (Danio rerio); experiment: Zebrafish VitD3-induced calcification model; type: in vivo; details: larvae from 5 dpf, 5 days; for VitD3-induced calcification on co-incubation: VitD3 200 ng/mL with TLR3-inhibitor 5 μg/mL, opercle and all bone structures
Description: Fish were maintained and raised under standard husbandry conditions. VitD3 treatments were performed as previously described^26 with some minor modifications. Briefly: 15 animals (5 dpf) were pooled per 6-well pate and incubated for 5 days at 28° C. in 4 ml E3 medium containing 0.1% DMSO and different compounds as indicated. Larvae were fixed in 4% PFA overnight. Final concentration of compounds was 5 μg/mL for TLR3-inhibitor (Merck, Darmstadt, Germany) and 200 ng/mL VitD3 (Sigma, St. Louis, MO). Dilutions were generated from stock solutions with 10 mg/mL TLR3-INH and 200 mg/mL VitD3 in DMSO. Solutions containing VitD3 were changed every day. All experiments were done in duplicates. Alizarin Red stains were performed as described previously^27 with some minor modifications. After staining larvae were transferred to 100% glycerol and imaged. Area measurements were carried out as described^28.
Whole area: For each larva three independent ventral view images were taken with a Leica MZ16FA using standardized stereomicroscope settings. After each image the larvae were embedded anew. Data quantification was done with ImageJ. Standard white balance was used for background subtraction. Image were converted to greyscale (8 bit) and threshold was set to 225. The stained area excluding the otoliths was measured.
Opercula area: Larvae were imaged laterally from both sides using a standard microscope setting. Area measurements were performed as described above.

[3] = target: T1, recombinant human TLR3 ectodomain (huTLR3-ECD), residues 27-700, C-terminal 6x His tag (human, UniProt O15455 27-700); experiment: size-exclusion chromatography of the mixed proteins, fractions immunoblotted
T1 construct: also called purified TLR3 ectodomain; hTLR3-ECD
Description: To obtain core protein of bovine biglycan, purchased biglycan (Sigma, St. Louis, MO) was incubated with Chondroitinase ABC (Merck, Darmstadt, Germany) at 37° C. for 2 h. Digestion of chondroitin sulfate was verified by electrophoresis and subsequent Coomassie-staining. To 185 μl of digested BGN (0.5 mg/ml) 15 μl of TLR3 (1 mg/ml) was added and incubated on ice for 30 min. The sample was subjected to size exclusion chromatography (Supedex200 increased 10/300 GL column) using 20 mM HEPES pH7.5 100 mM NaCl as running buffer. Fractions were collected and analyzed by Immunoblotting as described above.

[4] = target: TLR3 (Homo sapiens, UniProt O15455); experiment: HEK293 hTLR3 reporter cell assay (TLR3/ISRE LUCPorter, luminometer); type: cell-based; details: putative ligands at increasing concentrations, 24 h (biglycan 5, 10, 20 μg/ml)
Description: All cells were cultivated under standard conditions (37° C., supplied with 5% CO2). Passaging of the cells was performed at 70-90% confluency, and cells were only used until passage 7 as described previously^6. Polyinosinic: polycytidylic acid (Poly(I:C); Invivogen, San Diego, CA) was used to stimulate cells at a concentration of either 20 μg/mL or 5 μg/ml, depending on the assay. For blockade of TLR3, the commercially available dsRNA/TLR3 inhibitor ((R)-2-(3-Chloro-6-fluorobenzo [b] thiophene-2-carboxamido)-3-phenyl-propanoic acid) was used (Merck, Darmstadt, Germany) at a concentration of 1 μg/ml as described previously^1,7. LY294002 (Invivogen, San Diego, CA), a PI3K inhibitor, was used at a concentration of 10 μM. For blockade of IFNAR1, a specific blocking antibody (Invitrogen, Carlsbad, CA) was used at a concentration of 4 μg/ml. A stable HEK (human embryonic kidney) reporter cell line (TLR3/ISRE LUCPorter; Imgenex, USA) was purchased for luminometer assay experiments. Cells were cultivated according to the manufacturer's protocol in DMEM with 4.5 g/L glucose (Lonza, Switzerland), 10% FCS (Sigma, St. Louis, MO), penicillin/streptomycin, and 4 mM L-glutamine and […] puromycin (Gibco, USA) as selection agent. Reporter experiments were performed as described previously^8. […]

In the case of `O=C(N[C@H](Cc1ccccc1)C(=O)O)c1sc2cc(F)ccc2c1Cl` [TLR3 inhibitor, (R)-2-(3-Chloro-6-fluorobenzo [b]thiophene-2-carboxamido)-3-phenyl-propanoic acid], the “calcification / production of calcific nodules” value [1] is reported as “reduced calcification”, the “calcification / production of calcific nodules” value ([1]; listed as dsRNA/TLR3 complex inhibitor) is reported as “reduced” and the “alkaline phosphatase (ALP) activity” value ([1]; supernatant) is reported as “reduced”. The “VitD3-induced calcification on co-incubation” value [2] was “reduced calcification; also recorded: abolished” and the “VitD3-induced calcification on co-incubation” value ([2]; listed as Tlr3 inhibitor) was “severely impaired calcification of the skeleton”.

In the case of `C=C1CC[C@H](O)C/C1=C/C=C1\CCC[C@]2(C)[C@@H]([C@H](C)CCCC(C)C)CC[C@@H]12` [VitD3, vitamin D3], the “calcification of landmark bones” value ([2]; VitD3 200 ng/mL alone) is reported as “early and strong calcification of landmark bones”.

B1: core protein of bovine biglycan (purchased biglycan, Sigma, digested with Chondroitinase ABC) (ligand, UniProt P21809 38-369, looked up)
chain: DEEASGAETTSGIPDLDSLPPTYSAMCPFGCHCHLRVVQCSDLGLKAVPKEISPDTTLLDLQNNDISELRKDDFKGLQHLYALVLVNNKISKIHEKAFSPLRKLQKLYISKNHLVEIPPNLPSSLVELRIHDNRIRKVPKGVFSGLRNMNCIEMGGNPLENSGFEPGAFDGLKLNYLRISEAKLTGIPKDLPETLNELHLDHNKIQAIELEDLLRYSKLYRLGLGHNQIRMIENGSLSFLPTLRELHLDNNKLSRVPAGLPDLKLLQVVYLHTNNITKVGVNDFCPVGFGVKRAYYNGISLFNNPVPYWEVQPATFRCVTDRLAIQFGNYKK
modifications: chondroitin sulfate removed by Chondroitinase ABC digestion
notes: also called digested BGN; BGN
B1: binds [3].

B2: rhBGN: BGN lacking chondroitin sulfate chains (protein)
chain (part 1 of 2): HHHHHH
chain (part 2 of 2): DEEASGADTSGVLDPDSVTPTYSAMCPFGCHCHLRVVQCSDLGLKSVPKEISPDTTLLDLQNNDISELRKDDFKGLQHLYALVLVNNKISKIHEKAFSPLRKLQKLYISKNHLVEIPPNLPSSLVELRIHDNRIRKVPKGVFSGLRNMNCIEMGGNPLENSGFEPGAFDGLKLNYLRISEAKLTGIPKDLPETLNELHLDHNKIQAIELEDLLRYSKLYRLGLGHNQIRMIENGSLSFLPTLRELHLDNNKLARVPSGLPDLKLLQVVYLHSNNITKVGVNDFCPMGFGVKRAYYNGISLFNNPVPYWEVQPATFRCVTDRLAIQFGNYKK
modifications: left off: small tags and cut ends
notes: BGN lacking chondroitin sulfate chains
In the case of B2, the “activation of TLR3 reporter cells” value [4] is reported as “did not activate TLR3”.
